Data on one compound can be found in publication doi:10.1101/2024.02.23.581731v1 (biorxiv, 2024).

Numbering of substitutions follows the chain as printed.

The target of test [1] is T1, r5-HT3AR (Rattus norvegicus, UniProt P35563, I207V).
T1 sequence (P35563 24-483 I207V): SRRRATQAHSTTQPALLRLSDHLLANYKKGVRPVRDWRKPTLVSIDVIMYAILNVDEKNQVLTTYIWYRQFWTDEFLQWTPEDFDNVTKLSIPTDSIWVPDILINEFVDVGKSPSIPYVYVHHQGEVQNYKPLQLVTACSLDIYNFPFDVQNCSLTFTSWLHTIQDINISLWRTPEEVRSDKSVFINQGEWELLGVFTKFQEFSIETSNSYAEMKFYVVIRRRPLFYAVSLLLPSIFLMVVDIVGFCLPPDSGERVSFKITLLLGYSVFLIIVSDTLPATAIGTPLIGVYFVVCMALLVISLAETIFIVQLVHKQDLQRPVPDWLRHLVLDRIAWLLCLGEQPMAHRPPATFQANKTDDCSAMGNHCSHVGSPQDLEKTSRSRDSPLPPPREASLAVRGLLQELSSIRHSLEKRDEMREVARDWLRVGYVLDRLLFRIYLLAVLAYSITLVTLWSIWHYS
As to the kind of experiment: FLIPR Blue membrane potential assay, inhibition of 5-HT response. In kind it is cell-based.

Test [2] deals with T2, h5-HT3AR (Homo sapiens, UniProt P46098).
T2 sequence (P46098 24-478): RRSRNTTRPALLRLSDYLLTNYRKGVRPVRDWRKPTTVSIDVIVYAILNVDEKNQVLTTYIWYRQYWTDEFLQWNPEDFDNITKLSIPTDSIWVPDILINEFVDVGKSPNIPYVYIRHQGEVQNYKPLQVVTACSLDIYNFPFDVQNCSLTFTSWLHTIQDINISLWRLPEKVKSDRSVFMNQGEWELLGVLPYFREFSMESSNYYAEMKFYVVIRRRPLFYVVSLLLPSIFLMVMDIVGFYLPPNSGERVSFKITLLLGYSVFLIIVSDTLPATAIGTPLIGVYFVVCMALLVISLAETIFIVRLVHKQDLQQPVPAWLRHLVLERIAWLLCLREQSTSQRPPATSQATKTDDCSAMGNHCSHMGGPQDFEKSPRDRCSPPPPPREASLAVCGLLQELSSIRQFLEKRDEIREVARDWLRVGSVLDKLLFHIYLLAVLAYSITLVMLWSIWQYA
The test is described as above. In kind it is cell-based.

Test [3] concerns the target T3, h5-HT3AR (Homo sapiens, UniProt P46098, V202I).
T3 sequence (P46098 24-478 V202I): T2 sequence (P46098 24-478) with V179I
The test is described as above. Type of test: cell-based.

Test [4] deals with T2, h5-HT3AR. The test can be described thus: [3H]-GR65630 displacement, HEK-293 membranes. In kind it is binding.
Test [5] concerns the target T4, r5-HT3AR (Rattus norvegicus, UniProt P35563).
T4 sequence (P35563 24-483): T1 sequence (P35563 24-483 I207V) with V184I
The test can be described thus: FLIPR Blue membrane potential assay, inhibition of 5-HT response. Type of test: cell-based.

In test [6] the target is T5, h5-HT3AR (Homo sapiens, UniProt P46098, M223D).
T5 sequence (P46098 24-478 M223D): T2 sequence (P46098 24-478) with M200D
The description is as above. Type of test: cell-based.

The IC50 is the concentration at which inhibition is half-maximal. Read a low IC50 as inhibition by little substance. A word on the Ki: it is a dissociation constant, usually derived from enzyme kinetics or from competition with a known ligand. Low readings indicate tighter binding, high ones weaker binding. On to `Cc1ccc(Sc2ccccc2N2CCNCC2)c(C)c1` [vortioxetine], for which the IC50 against r5-HT3AR [1] stood at 10 nM; against h5-HT3AR [2], 20 nM; against h5-HT3AR [3] it was 37 nM; at r5-HT3AR [5] it was 26 nM; at h5-HT3AR [6], 375 nM. On h5-HT3AR [4], this compound displayed a Ki of 24 nM.
